Assay results taken from ChEMBL document CHEMBL1140752, “High confidence predictions of drug-drug interactions: predicting affinities for cytochrome P450 2C9 with multiple computational methods” (J Med Chem, 2008).

Target: Cytochrome P450 2C9 (Homo sapiens, UniProt P11712)
Assay: Inhibition of CYP2C9
Type: ADME

Cytochrome P450 2C9, sequence (P11712 whole entry): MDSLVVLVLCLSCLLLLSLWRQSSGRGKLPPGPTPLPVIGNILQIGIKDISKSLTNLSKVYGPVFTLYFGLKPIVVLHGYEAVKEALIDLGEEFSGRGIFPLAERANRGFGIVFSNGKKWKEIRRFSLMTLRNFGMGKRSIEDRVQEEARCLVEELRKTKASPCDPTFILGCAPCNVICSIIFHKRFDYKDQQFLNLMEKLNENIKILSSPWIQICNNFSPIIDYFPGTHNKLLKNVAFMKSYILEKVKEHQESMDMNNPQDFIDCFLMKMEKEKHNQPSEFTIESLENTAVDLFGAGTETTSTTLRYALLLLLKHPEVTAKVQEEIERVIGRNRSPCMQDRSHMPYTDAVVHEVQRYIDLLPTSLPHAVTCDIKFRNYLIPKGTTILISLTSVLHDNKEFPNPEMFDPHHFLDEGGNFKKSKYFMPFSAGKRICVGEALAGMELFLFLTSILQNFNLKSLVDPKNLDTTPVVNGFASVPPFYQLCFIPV

Ki: 101 nM
SMILES: CCc1oc2ccccc2c(=O)c1C(=O)c1cc(Br)c(O)c(Br)c1
